Measurements reported in US9988626B2, “Neurocalcin delta inhibitors and therapeutic and non-therapeutic uses thereof” (Universität Zu Köln, priority 2013, dated 2018).
Entries after “also recorded” stand apart in the source; their conditions may differ.

How the values were obtained:
[1] = tested on: zebrafish larvae; assay: Endocytosis inhibitor treatment of zebrafish, motor axon phenotype; assay type: in vivo
Experimental: The in vivo effect of inhibition of endocytosis on MN outgrowth was investigated by the use of the pharmacological inhibitors Pitstop2 and Dynasore (both Abcam) in the SMA zebrafish model. Motor axons of treated zebrafish larvae were analyzed by fluorescence microscopy. For immunohistochemistry, zebrafish were manually dechorionated and fixed in 4% PFA-PBS at 34 hours post fertilization. To permeabilize the larvae for the following antibody staining, collagenase digest of the whole animal was performed. To visualize the primary motor axons, fish were incubated at 4° C. over night in 500 μl PBS-T/1% DMSO/10% FCS containing znp-1 antibody (1:300, Hybridoma Bank). Fish were stained in PBS-T/1% DMSO/10% FCS containing secondary donkey anti-mouse antibody labelled with Alexafluor 488 (1:200, Invitrogen) after all-day washing in PBS-T/1% FCS/1% BSA (changing solution every hour). After repeated washing in PBS-T and PBS, fish were stored in 80% glycerol/20% PBS in the dark at 4° C. Labelled fish were embedded in low-melting agarose micro slides and analysed using a fluorescence microscope (AxioImager M2, Zeiss). The structure of each of the first ten motor axons posterior to the yolk was analysed, rated as: 1) normal, 2) truncated (truncation ventral from midline), 3) severely truncated (shorter than midline), 4) branched I (branching ventral from midline), 5) branched II (branching at midline), or 6) branched BI (branching dorsal from midline) and statistically evaluated using Excel (Microsoft). Dynasore (dynamin inhibitor) and Pitstop2 (clathrin inhibitor) (both Abcam) were dissolved as stock solution (50 mM) in DMSO and stored at −20° C. Zebrafish were treated with the respective concentrations starting at 16 hpf. To do so, fish were dechorionated and substance was added to the embryo medium. Fish larvae were incubated at 28° C. in an incubator on a rocking platform (20 rpm) until fixed in PBS-PFA at 34 hpf. Subsequently fish were stained with znp-1 antibody, as described above.

[2] = tested on: NSC34 cells; assay: FITC-dextran endocytosis assay of NSC34 cells treated with Ionomycin; assay type: cell-based, mouse; conditions: presence vs absence of Ionomycin, n=50
Experimental: To unravel differences in endocytosis performance, cells (fibroblasts and NSC34) were starved and subsequently incubated with FITC-dextran. FITC-uptake after respective incubation times was quantified either by microscopic analysis or by FACS.
One day before the measurement, some 15,000 fibroblasts per well (4-well EZ slides, Millipore) were plated out in 500 μl normal DMEM growth medium (Invitrogen). Cells were starved for 10 minutes in starvation media (DMEM transparent (HEPES), 2% FKS) at 37° C. For endocytosis, cells were treated with FITC dextran solution (5 mg/ml FITC-dextran in starvation medium) for respective time period at 37° C. Subsequently, medium was removed and cells were washed three times with ice-cold PBS on ice and fixed in 4% paraformaldehyde for ten minutes. After subsequent washing (2 times in PBS) cells were stained with Alexafluor 568 phalloidin (Invitrogen, 2 hours at 4° C.). Then, after washing cells were stained with DAPI and mounted with Mowiol (Sigma). Finally, FITC fluorescence was monitored at the fluorescence microscope (Axiolmager M2, Zeiss) and quantified using the Zen software (Zeiss) and evaluated with Excel (Microsoft).

[3] = tested on: Ncald; assay: Knockdown efficiency of shRNA constructs in NSC34 cells (qRT-PCR of Ncald levels); assay type: cell-based, mouse; conditions: transient transfection of NSC34 cells, 72 h
Experimental: Before starting the cloning of the targeting construct for the mouse generation, we constructed and tested five individual shRNA elements targeting the Ncald gene. To do so, we transiently transfected five different shRNA-Ncald constructs in murine NSC34 cells and analysed the knockdown efficiency after 72 h. […] For further testing, we cloned selected shRNA sequences into the vector pEx-H1tetO-CAG-tetR carrying all necessary elements of the tetO/R system which allow later induction of the shRNA-expression by administration of doxycycline (Dox) (Kleinhammer et al. 2011). Currently, after we could verify the dox-inducible capability of two shRNA constructs to knockdown Ncald, we are producing stable murine embryonic cell lines (ES cells) to subsequently generate two individual transgenic mouse strains containing inducible Ncald knockdown vectors. These mice will later be crossed on SMA background to investigate the protective ability of Ncald downregulation.
The knockdown efficiency of five individual shRNA sequences was tested by qRT-PCR-based quantification of Ncald levels, 72 h after knockdown using different shRNA sequences. Transient transfection of NSC34 cells. The respective sequences are those of SEQ ID NO: 15-19 as shown above.

Compound: O=C(N/N=C/c1ccc(O)c(O)c1)c1cc2ccccc2cc1O [Dynasore]
- Motor axon truncation, inhibitor alone or with low smn MO ([1]; Dynasore alone or in combination with low smn MO): SMA-like axonal truncations

Compound: C[C@H](CCC(=O)O)C[C@H](C)C[C@H](C)C(=O)/C=C(\O)[C@H](C)C[C@H](C)C/C=C/[C@@H](C)[C@@H](O)[C@@H](C)[C@@H](O)C[C@@H]1CC[C@@](C)([C@H]2CC[C@@](C)([C@@H](C)O)O2)O1 [Ionomycin]
- Endocytosis (FITC-dextran) [2]: significant increase in endocytosis; also recorded: significantly increased endocytosis

Compound: O=C1NC(=NS(=O)(=O)c2cccc3ccccc23)S/C1=C\c1ccc(Br)cc1 [Pitstop2]
- Motor axon truncation, inhibitor in combination with smn MO ([1]; subphenotypical smn MO (2 ng) plus Pitstop2): significant elevation in the number of truncated motor axons
- Motor axon truncation, inhibitor in combination with smn MO ([1]; subphenotypical smn MO (2 ng) plus Pitstop2, listed as Pitstop): synergistic effect

Compound: shRNA #4: shRNA knocking down mouse NCALD, one of five of SEQ ID NO: 15-19 (DNA CCGGCGCCAGATGGATACCAATAGACTGGAGTCTATTGGTATCCATCTGGCGTTTTTG)
- Knockdown efficacy of Ncald [3]: sufficient knockdown efficacy

Compound: shRNA #5: shRNA knocking down mouse NCALD, one of five of SEQ ID NO: 15-19 (DNA CCGGGCTTCCAAATTTGCAGAGCATCTGGAGATGCTCTGCAAATTTGGAAGCTTTTTG)
- Knockdown efficacy of Ncald [3]: sufficient knockdown efficacy
